Converted amounts (≈) assume the structure as drawn.
What was measured:
Assay type in all cases: functional
[1] = tested on: Mycobacterium tuberculosis; test: Antimycobacterial activity against Mycobacterium tuberculosis over expressing DprE1 Y314H mutant after 5 days by standard microdilution method
[2] = tested on: Mycobacterium tuberculosis; test: Antimycobacterial activity against moxifloxacin-resistant Mycobacterium tuberculosis clone 4.1 over expressing DprE1 mutant after 5 days by standard microdilution method
[3] = tested on: Mycobacterium tuberculosis; test: Antimycobacterial activity against BTZ043-resistant Mycobacterium tuberculosis over expressing DprE1 C387S mutant after 5 days by standard microdilution method
[4] = tested on: Mycobacterium tuberculosis; test: Antimycobacterial activity against TMC207R-resistant Mycobacterium tuberculosis clone 8.1 over expressing DprE1 mutant after 5 days by standard microdilution method

SMILES: Cn1ncc(C(=O)N2CCC(Nc3cc(=O)[nH]c4ccccc34)CC2)c1Cl
- MIC [1]: 100 µM (≈ 38.6 µg/mL)
- MIC [2]: 1.6 µM (≈ 0.617 µg/mL)
- MIC [3]: 100 µM (≈ 38.6 µg/mL)
- MIC [4]: 3.1 µM (≈ 1.2 µg/mL)

SMILES: Cc1onc(C(=O)N2CCC(Nc3cc(=O)n(C)c4cc(F)c(F)cc34)CC2)c1C
- MIC [1]: <25 µM
- MIC [3]: 6.25 µM (≈ 2.6 µg/mL)

SMILES: Cn1ncc(C(=O)N2CCC(Nc3cc(=O)[nH]c4ccc(F)cc34)CC2)c1Cl
- MIC [1]: 25 µM (≈ 10.1 µg/mL)
- MIC [2]: 1.6 µM (≈ 0.646 µg/mL)
- MIC [3]: 25 µM (≈ 10.1 µg/mL)
- MIC [4]: 1.6 µM (≈ 0.646 µg/mL)

SMILES: C[C@H]1C[C@H](Nc2cc(=O)[nH]c3cc(F)c(F)cc23)CCN1C(=O)c1cnn(C)c1Cl
- MIC [1]: 0.78 µM (≈ 0.34 µg/mL)
- MIC [3]: 6.25 µM (≈ 2.72 µg/mL)

SMILES: NNC(=O)c1ccncc1 [ISONIAZID]
- MIC [2]: 0.45 µM (≈ 0.0617 µg/mL)
- MIC [3]: 0.45 µM (≈ 0.0617 µg/mL)
- MIC [4]: 0.23 µM (≈ 0.0315 µg/mL)

SMILES: Cn1ncc(C(=O)N2[C@@H]3CC[C@H]2C[C@@H](Nc2cc(=O)[nH]c4ccc(F)cc24)C3)c1Cl
- MIC [1]: <0.39 µM
- MIC [3]: 1.56 µM (≈ 0.671 µg/mL)

SMILES: C[C@H]1COC2(CCN(c3nc(=O)c4cc(C(F)(F)F)cc([N+](=O)[O-])c4s3)CC2)O1 [BTZ-043]
- MIC [2]: 0.003 µM (≈ 0.00129 µg/mL)
- MIC [3]: 25 µM (≈ 10.8 µg/mL)
- MIC [4]: 0.002 µM (≈ 0.000863 µg/mL)

SMILES: COc1c(N2C[C@@H]3CCCN[C@@H]3C2)c(F)cc2c(=O)c(C(=O)O)cn(C3CC3)c12 [MOXIFLOXACIN]
- MIC [3]: 0.08 µM (≈ 0.0321 µg/mL)

SMILES: COc1nc2ccc(Br)cc2cc1[C@@H](c1ccccc1)[C@@](O)(CCN(C)C)c1cccc2ccccc12 [BEDAQUILINE]
- MIC [2]: 1.6 µM (≈ 0.889 µg/mL)
- MIC [3]: 0.4 µM (≈ 0.222 µg/mL)
- MIC [4]: 50 µM (≈ 27.8 µg/mL)

SMILES: Cn1ncc(C(=O)N2CCC(Nc3cc(=O)[nH]c4cc(F)c(F)cc34)CC2)c1Cl
- MIC [1]: 50 µM (≈ 21.1 µg/mL)
- MIC [2]: 0.2 µM (≈ 0.0844 µg/mL)
- MIC [3]: 3.12 µM (≈ 1.32 µg/mL)
- MIC [4]: 0.2 µM (≈ 0.0844 µg/mL)

Reference: ChEMBL document CHEMBL3286182, “4-aminoquinolone piperidine amides: noncovalent inhibitors of DprE1 with long residence time and potent antimycobacterial activity” (J Med Chem, 2014)
